Series [1] is described as follows: Cytotoxicity assay in MT-4 cells. In kind it is cell-based. The settings on record: human, uninfected MT-4 cells, average of at least two independent experiments, read-out: MT4 CC50. The procedure:
Compounds were tested in a high-throughput 384-well assay format for their ability to inhibit the replication of HIV-1 (IIIB) in MT-4 cells. Compounds were serially diluted (1:3) in DMSO on 384-well polypropylene plates and further diluted 200-fold into complete RPMI media (10% FBS, 1% P/S) using the Biotek Micro Flow and Labcyte ECHO acoustic dispenser. Each plate contained up to 8 test compounds, with negative (no drug) and positive (5 μM AZT) controls. MT-4 cells were pre-treated with 10 μL of either RPMI (mock-infected) or a fresh 1:250 dilution of HIV-1 IIIB concentrated virus stock. Infected and uninfected MT-4 cells were further diluted in complete RPMI media and added to each plate using a Micro Flow dispenser. After 5 days incubation in a humidified and temperature-controlled incubator (37° C.), Cell Titer Glo (Promega) was added to the assay plates and chemiluminescence read using an Envision plate-reader. EC50 values were defined as the compound concentration that causes a 50% decrease in luminescence signal and were calculated using a sigmoidal dose-response model to generate curve fits and are shown in Table 1.
Example 105: Cytotoxicity Assay in MT-4 Cells
Assays were performed as described in Example 104 except uninfected MT-4 cells were added to each well containing test compound. In addition, 10 μM puromycin was added to the last column of each assay plate to assess a base level of cytotoxicity.

Series [2] in a line: Cytotoxicity assay in primary human hepatocytes (PHHs). In kind it is cell-based. The settings on record: HBV-infected primary human hepatocytes, HBV-infected PHH, Cell Titer Glo, average of at least two independent experiments. Here is the method:
Example 107: Cytotoxicity Assay in Primary Human Hepatocytes (PHHs)
The HBV-infected primary human hepatocytes are seeded (20K cells/well in 80 uL of Media) in 384well collagen coated plates pre-spotted with compounds. After 5 days, 40 ul of cell supernatant is removed to quantify HBV DNA levels as described in Example 106. Then, 40 ul Cell Titer Glo Reagent (Promega Catalog Number: G7572) is added to the remaining cells and luminescence is measured on the EnVision microplate reader.
On the technique in general: Cellular ATP, detected with luciferase, serves as a proxy for viable cell number.

Series [3] can be described thus: Kinetic solubility analysis. The series is classed as physicochemical. The settings on record: 1× PBS, 24.2 °C, aqueous buffer, kinetic from dmso stock; pH 7.4 PBS, 1% DMSO, 24-hour incubation at ambient temperature. The essentials:
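Compounds from 10 mM DMSO stocks were incubated in 0.1 N HCl or 1× PBS pH 7.4 (1.0% DMSO, 100 μM maximum theoretical) for 24 h at 24.2-27.5 °C, then vacuum filtered. Filtrates were quantified in μM by chemiluminescent nitrogen detection against a calibration curve, corrected for background nitrogen; values for adjacent ring-nitrogen compounds were raised ~25%.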

The structures appear in SMILES notation. Values after ≈ are worked out from the molar mass of the structure shown.

Broadly, the CC50 is the concentration giving 50% cytotoxicity. The term solubility (kinetic) denotes solubility judged after dilution from a stock solution rather than from solid.

Take `C[C@H](Cn1cnc2c(N)ncnc21)OCP(=O)(NC(C)(C)C(=O)OCc1ccccc1)NC(C)(C)C(=O)OCc1ccccc1` [Example 3, Dibenzyl 2,2′-(((((1-(6-amino-9H-purin-9-yl)propan-2-yl)oxy)methyl)phosphoryl)bis(azanediyl))(R)-bis(2-methylpropanoate)]: the CC50 at 5 days was 4.46 µM in series [1] and more than 0.1 µM in series [2]. In addition, in series [3], the solubility (kinetic) at 24 h worked out at 50 µg/mL (≈ 78.4 µM).

For `CCCCCOC(=O)C(C)(C)NP(=O)(CO[C@H](C)Cn1cnc2c(N)ncnc21)NC(C)(C)C(=O)OCCCCC` [Example 4, Dipentyl 2,2′-(((((1-(6-amino-9H-purin-9-yl)propan-2-yl)oxy)methyl)phosphoryl)bis(azanediyl))(R)-bis(2-methylpropanoate)], the CC50 at 5 days in series [1] is 8.42 µM; in series [2], more than 0.1 µM. In series [3], this molecule returned a solubility (kinetic) at 24 h of 53 µg/mL (≈ 88.7 µM).

As for `CCC[C@H]1CC[C@H](OC(=O)C(C)(C)NP(=O)(CO[C@H](C)Cn2cnc3c(N)ncnc32)NC(C)(C)C(=O)O[C@H]2CC[C@H](CCC)CC2)CC1` [Example 27], the CC50 at 5 days in series [2] is more than 0.1 µM. Also, the kinetic solubility at 24 h in series [3] stood at 1 µg/mL (≈ 1.42 µM).

Consider `CCCCCCCCCCCC(=O)Nc1ncnc2c1ncn2C[C@@H](C)OCP(=O)(NC(C)(C)C(=O)OCCCCCC)NC(C)(C)C(=O)OCCCCCC` [Example 30, Dihexyl 2,2′-(((((1-(6-dodecanamido-9H-purin-9-yl)propan-2-yl)oxy)methyl)phosphoryl)bis(azanediyl))(R)-bis(2-methylpropanoate)], for which, in series [2], the half-maximal cytotoxic concentration (CC50) at 5 days is more than 0.1 µM. Further, in series [3], the solubility (kinetic) at 24 h is less than 1 µg/mL.

As for `CCCCCCOC(=O)C(C)(C)NP(=O)(CO[C@H](C)Cn1cnc2c(NC(=O)OCCC)ncnc21)NC(C)(C)C(=O)OCCCCCC` [Example 31, Dihexyl 2,2′-(((((1-(6-((propoxycarbonyl)amino)-9H-purin-9-yl)propan-2-yl)oxy)methyl)phosphoryl)bis(azanediyl))(R)-bis(2-methylpropanoate)], the CC50 at 5 days in series [1] was 9.01 µM; in series [2], more than 0.1 µM. In series [3], this molecule gave a kinetic solubility at 24 h of 12 µg/mL (≈ 16.9 µM).

With `C[C@H](Cn1cnc2c(N)ncnc21)OCP(=O)(NC(C)(C)C(=O)OC1CCC2(CCCC2)CC1)NC(C)(C)C(=O)OC1CCC2(CCCC2)CC1` (stereo partly drawn) [Example 61, Di(spiro[4.5]decan-8-yl) 2,2′-(((((1-(6-amino-9H-purin-9-yl)propan-2-yl)oxy)methyl)phosphoryl)bis(azanediyl))(R)-bis(2-methylpropanoate)], the 50% cytotoxic concentration (CC50) at 5 days in series [1] is 6 µM; in series [2] it was more than 0.1 µM. The molecule further gave a solubility (kinetic) at 24 h in series [3] of less than 1 µg/mL.

With `C[C@H](Cn1cnc2c(N)ncnc21)OCP(=O)(NC(C)(C)C(=O)OCCC12CC(C1)C2)NC(C)(C)C(=O)OCCC12CC(C1)C2` [Example 62, Bis(2-(bicyclo[1.1.1]pentan-1-yl)ethyl) 2,2′-(((((1-(6-amino-9H-purin-9-yl)propan-2-yl)oxy)methyl)phosphoryl)bis(azanediyl))(R)-bis(2-methylpropanoate)], the cytotoxic concentration (CC50) at 5 days is 3.19 µM in series [1] and more than 0.1 µM in series [2]. The kinetic solubility at 24 h in series [3] was less than 1 µg/mL.

As to `CCCCCCOC(=O)C(NP(=O)(CO[C@H](C)Cn1cnc2c(N)ncnc21)NC(C(=O)OCCCCCC)(C1CC1)C1CC1)(C1CC1)C1CC1` [Example 64, Dihexyl 2,2′-(((((1-(6-amino-9H-purin-9-yl)propan-2-yl)oxy)methyl)phosphoryl)bis(azanediyl))(R)-bis(2,2-dicyclopropylacetate)], in series [1], the CC50 at 5 days was 7.34 µM. In addition, the kinetic solubility at 24 h in series [3] is less than 1 µg/mL.

As for `CCCCCCOC(=O)C(CC)(CC)NP(=O)(CO[C@H](C)Cn1cnc2c(N)ncnc21)NC(CC)(CC)C(=O)OCCCCCC` [Example 65, Dihexyl 2,2′-(((((1-(6-amino-9H-purin-9-yl)propan-2-yl)oxy)methyl)phosphoryl)bis(azanediyl))(R)-bis(2-ethylbutanoate)], the 50% cytotoxic concentration (CC50) at 5 days in series [1] is 6.71 µM; in series [2] it was more than 0.1 µM.

`CCCCCCCOC(=O)C(C)(C)NP(=O)(CO[C@H](C)Cn1cnc2c(N)ncnc21)NC(C)(C)C(=O)OCCCCCCC` [Example 66, Diheptyl 2,2′-(((((1-(6-amino-9H-purin-9-yl)propan-2-yl)oxy)methyl)phosphoryl)bis(azanediyl))(R)-bis(2-methylpropanoate)]: the CC50 at 5 days in series [1] is 4.77 µM; in series [2], more than 0.1 µM.

Regarding `CCCCCCOC(=O)C(C)(C)NP(=O)(CO[C@H](C)Cn1cnc2c(N)ncnc21)NC(C)(C)C(=O)OCC12CC(C1)C2` (stereo partly drawn) [Example 77, Bicyclo[1.1.1]pentan-1-ylmethyl 2-((((((R)-1-(6-amino-9H-purin-9-yl)propan-2-yl)oxy)methyl)((1-(hexyloxy)-2-methyl-1-oxopropan-2-yl)amino)phosphoryl)amino)-2-methylpropanoate], the cytotoxic concentration (CC50) at 5 days was more than 50 µM in series [1] and more than 0.1 µM in series [2]. Besides, the solubility (kinetic) at 24 h in series [3] was determined as 57 µg/mL (≈ 91.7 µM).

Consider `C[C@H](Cn1cnc2c(N)ncnc21)OCP(=O)(NC(C)(C)C(=O)O[C@H]1CC[C@H](c2ccccc2)CC1)NC(C)(C)C(=O)O[C@H]1CC[C@H](c2ccccc2)CC1` [Example 93, Bis(trans-4-phenylcyclohexyl) 2,2′-((((((R)-1-(6-amino-9H-purin-9-yl)propan-2-yl)oxy)methyl)phosphoryl)bis(azanediyl))bis(2-methylpropanoate)], for which the CC50 at 5 days in series [1] came to 5.47 µM. In series [3], this molecule gave a solubility (kinetic) at 24 h of 1 µg/mL (≈ 1.29 µM).

Take `CCCCCCOC(=O)C(C)(C)NP(=O)(CO[C@H](C)Cn1cnc2c(NC(=O)OCC(=O)OCc3oc(=O)oc3C)ncnc21)NC(C)(C)C(=O)OCCCCCC` [Example 95, Dihexyl 2,2′-(((((1-(6-(((2-((5-methyl-2-oxo-1,3-dioxol-4-yl)methoxy)-2-oxoethoxy)carbonyl)amino)-9H-purin-9-yl)propan-2-yl)oxy)methyl)phosphoryl)bis(azanediyl))(R)-bis(2-methylpropanoate)]: the CC50 at 5 days in series [1] was 14.8 µM. The kinetic solubility at 24 h in series [3] stood at 60 µg/mL (≈ 71.4 µM).

Consider `CCCCCCOC(=O)C(C)(C)NP(=O)(CO[C@H](C)Cn1cnc2c(NC(=O)[C@H]3CCC(=O)O3)ncnc21)NC(C)(C)C(=O)OCCCCCC` [Example 96, Dihexyl 2,2′-((((((R)-1-(6-((R)-5-oxotetrahydrofuran-2-carboxamido)-9H-purin-9-yl)propan-2-yl)oxy)methyl)phosphoryl)bis(azanediyl))bis(2-methylpropanoate)], for which the CC50 at 5 days in series [1] was found to be 11 µM. Moreover, the kinetic solubility at 24 h in series [3] is 92 µg/mL (≈ 125 µM).

For `CCCCCCOC(=O)C(C)(C)NP(=O)(CO[C@H](C)Cn1cnc2c(NC(=O)OCC(C)(C)C(=O)OCc3oc(=O)oc3C)ncnc21)NC(C)(C)C(=O)OCCCCCC` [Example 98, Dihexyl 2,2′-(((((1-(6-(((2,2-dimethyl-3-((5-methyl-2-oxo-1,3-dioxol-4-yl)methoxy)-3-oxopropoxy)carbonyl)amino)-9H-purin-9-yl)propan-2-yl)oxy)methyl)phosphoryl)bis(azanediyl))(R)-bis(2-methylpropanoate)], in series [1], the CC50 at 5 days stood at 24.5 µM. This molecule yielded a kinetic solubility at 24 h in series [3] of 7 µg/mL (≈ 7.94 µM).

With `CCCCCCOC(=O)C(C)(C)NP(=O)(CO[C@H](C)Cn1cnc2c(NC(=O)CCCC(=O)OCc3oc(=O)oc3C)ncnc21)NC(C)(C)C(=O)OCCCCCC` [Example 99, (5-Methyl-2-oxo-1,3-dioxol-4-yl)methyl 5-[[9-[(2R)-2-[bis[(2-hexoxy-1,1-dimethyl-2-oxo-ethyl)amino]phosphorylmethoxy]propyl]purin-6-yl]amino]-5-oxo-pentanoate], the cytotoxic concentration (CC50) at 5 days in series [1] was determined as 17.2 µM. Also, in series [3], the solubility (kinetic) at 24 h was 25 µg/mL (≈ 29.3 µM).

On to `CCCCCCOC(=O)C(C)(C)NP(=O)(CO[C@H](C)Cn1cnc2c(NC(=O)OC(C)(C)CC(=O)OCc3oc(=O)oc3C)ncnc21)NC(C)(C)C(=O)OCCCCCC` [Example 101, Dihexyl 2,2′-(((((1-(6-((((2-methyl-4-((5-methyl-2-oxo-1,3-dioxol-4-yl)methoxy)-4-oxobutan-2-yl)oxy)carbonyl)amino)-9H-purin-9-yl)propan-2-yl)oxy)methyl)phosphoryl)bis(azanediyl))(R)-bis(2-methylpropanoate)], for which the 50% cytotoxic concentration (CC50) at 5 days in series [1] was 7.68 µM. The molecule further gave a solubility (kinetic) at 24 h in series [3] of 23 µg/mL (≈ 26.1 µM).
